Test results from the SangsterLogP compilation.

SMILES	logP
COc1ccc(Cc2cnc(N)nc2N)cc1Nc1ccccc1	2.88
COc1ccc(Cc2cnc(N)nc2N)cc1N(C)C	1.68
CCCOc1cc(Cc2cnc(N)nc2N)ccc1OC	1.88
CCCOc1cc(Cc2cnc(N)nc2N)c(Br)cc1OC	2.31
COc1cc(Br)c(Cc2cnc(N)nc2N)cc1OC	1.64
COc1cc(Cc2cnc(N)nc2N)c(Br)cc1Br	3.17
COc1ccc(Cc2cnc(N)nc2N)cc1C(C)C	2.79
CCOc1cc(Cc2cnc(N)nc2N)c(Br)c(OCC)c1OCC	1.81
COc1ccc(Cc2cnc(N)nc2N)cc1Br	1.88
COc1ccc(Cc2cnc(N)nc2N)cc1C	1.91
CCOc1ccc(Cc2cnc(N)nc2N)cc1OCC	1.72
COc1ccc(Br)cc1Cc1cnc(N)nc1N	2.44
Nc1ncc(Cc2ccccc2)c(N)n1	1.54
COc1ccc(Cc2cnc(N)nc2N)cc1N	0.76
CCOc1ccc(Cc2cnc(N)nc2N)cc1OC	1.34
COc1ccc(I)cc1Cc1cnc(N)nc1N	2.7
CN(C)c1ccc(Cc2cnc(N)nc2N)cc1	1.82
CCCOc1cc(Br)c(Cc2cnc(N)nc2N)cc1OC	2.84
COc1c(Br)c(Cc2cnc(N)nc2N)c(Br)c(OC)c1OC	1.73
COc1ccc(Cc2cnc(N)nc2N)cc1F	1.08

SMILES	logP
COc1cc(Cc2cnc(N)nc2N)ccc1Nc1ccccc1	3.42
CCOc1cc(Cc2cnc(N)nc2N)c(Br)cc1OC	1.86
COc1ccc(Cc2cnc(N)nc2N)cc1I	2.09
COc1ccc(Br)c(Cc2cnc(N)nc2N)c1	2
COc1cc(Cc2cnc(N)nc2N)ccc1N	0.49
COc1cc(Cc2cnc(N)nc2N)ccc1Oc1ccccc1	2.49
CCOc1cc(Cc2cnc(N)nc2N)cc(OCC)c1OCC	2.08
COc1ccccc1Cc1cnc(N)nc1N	1.75
COc1cc(Cc2cnc(N)nc2N)c(Br)c(OC)c1OC	1.66
COc1cc(Cc2cnc(N)nc2N)ccc1C(C)C	3.14
CCOc1cc(Cc2cnc(N)nc2N)ccc1OC	1.2
CCOc1cc(Cc2cnc(N)nc2N)c(I)c(OCC)c1OCC	2.9
CCCOc1ccc(Cc2cnc(N)nc2N)cc1OC	2.02
CCN(CC)c1cc(Cc2cnc(N)nc2N)ccc1OC	2.43
CCOc1cc(Br)c(Cc2cnc(N)nc2N)cc1OC	2.18
COc1cc(Cc2cnc(N)nc2N)ccc1N(C)C	1.87
COc1cc(Cc2cnc(N)nc2N)ccc1OC1CCCC1	2.65
COc1cc(Cc2cnc(N)nc2N)ccc1Cl	1.87
COc1ccc(Cc2cnc(N)nc2N)cc1Oc1ccccc1	2.12
COc1ccc(Cc2cnc(N)nc2N)cc1	1.34
